# Legend:
# [1] = Anti-wrinkle effect in vivo in man (verification of the predictive value of the nerve/muscle test); details: in vivo chez l'homme
# Description: (§1) Ce test est prédictif d'un effet anti-rides, comme cela a été vérifié par la Demanderesse sur le diazépam, qui est à la fois actif in vivo chez l'homme et dans ce test à 10^-4 M.
# [2] = test system: jonction nerf / muscle (plaque motrice); assay: Nerve/muscle junction model (motor end plate): isolated rat phrenic nerve / diaphragm preparation, contractions induced by indirect stimulation; details: for inhibition at 100 µM: Rattus norvegicus, concentration 10^-4 M, contractions induced by stimulation of the phrenic nerve (0.1 à 0.5 volts, 0.3 ms, 0.1 Hz), read-out: % INHIBITION DES CONTRACTIONS
# Protocol: Le composé 1 a été testé sur un modèle de jonction nerf / muscle (plaque motrice) obtenu dans une préparation nerf phrénique / diaphragme isolé de rat (muscle strié) (Pollard B.J. et al, Br.J. Anaesth., 1988, 61, 419-424).
# as §1
# Le nerf phrénique et le diaphragme sont soigneusement isolés et placés dans une cuve de 50 ml remplie de liquide de survie (liquide de Krebs Henseleit) maintenu à une température de 37°C et oxygéné à l'aide d'un mélange oxygène/CO2 (95/5).
# Les variations de tension du diaphragme sont enregistrées avec une pré-charge initiale de plusieurs grammes.
# Après une période de relaxation de 30 mn, le diaphragme est stimulé indirectement par l'intermédiaire du nerf phrénique.
# Sur chaque préparation, l'effet du composé à tester a été évalué sur les contractions induites par stimulation indirecte via stimulation sur le nerf phrénique (0.1 à 0.5 volts, 0.3 ms, 0.1 Hz). L'alvérine, connue comme composé myorelaxant à effet anti-rides d'après la demande FR-2 798 590, est utilisée comme témoin.
# [3] = target: canaux calciques de type L, site vérapamil (Rattus norvegicus, UniProt P22002); assay: Calcium channel test: competitive inhibition of [3H](-) D 888 binding, rat cerebral cortex homogenates
# Description: Le test mesure la capacité d'un produit à inhiber par compétition la fixation d'[…] de canaux calciques de type L, type Vérapamil. Ces canaux ont été identifiés au niveau des fibroblastes humains (Baumgarten LB and coll (1992), J. Biol. Chem, 267, 10524-10530 et Chen CF and coll (1988), Science, 239, 1024-1026).
# Les études sont réalisées à partir d'homogénats de cortex cérébral de rat (membranes isolées présentant à leur surface notamment les canaux calciques de type L).
# Les conditions expérimentales selon le protocole décrit par Reynolds I.J. et al., 1986, J. Pharmacol. Exp. Ther., 237, p.731, sont présentées dans le tableau 1 ci-dessous : Tableau 1
# D888 et D600 sont les molécules de référence spécifiques des canaux calciques de type L, site vérapamil.
# La liaison spécifique d'un ligand (D888 marqué) aux récepteurs (canaux calciques de type L, site vérapamil) est défini comme la différence entre la liaison totale et la liaison non spécifique déterminée en présence d'un excès de ligand non radioactif. Les résultats sont exprimés en pourcentage de liaison spécifique témoin et en pourcentage d'inhibition de cette liaison en présence des composés testés.
# Les valeurs d'IC50 (concentration inhibant 50% de la liaison spécifique témoin) et du coefficient de Hill (nH) sont calculées pour les composés testés à partir des courbes de compétition selon un modèle de régression non linéaire. […]
# Chain of canaux calciques de type L, site vérapamil (P22002 whole entry): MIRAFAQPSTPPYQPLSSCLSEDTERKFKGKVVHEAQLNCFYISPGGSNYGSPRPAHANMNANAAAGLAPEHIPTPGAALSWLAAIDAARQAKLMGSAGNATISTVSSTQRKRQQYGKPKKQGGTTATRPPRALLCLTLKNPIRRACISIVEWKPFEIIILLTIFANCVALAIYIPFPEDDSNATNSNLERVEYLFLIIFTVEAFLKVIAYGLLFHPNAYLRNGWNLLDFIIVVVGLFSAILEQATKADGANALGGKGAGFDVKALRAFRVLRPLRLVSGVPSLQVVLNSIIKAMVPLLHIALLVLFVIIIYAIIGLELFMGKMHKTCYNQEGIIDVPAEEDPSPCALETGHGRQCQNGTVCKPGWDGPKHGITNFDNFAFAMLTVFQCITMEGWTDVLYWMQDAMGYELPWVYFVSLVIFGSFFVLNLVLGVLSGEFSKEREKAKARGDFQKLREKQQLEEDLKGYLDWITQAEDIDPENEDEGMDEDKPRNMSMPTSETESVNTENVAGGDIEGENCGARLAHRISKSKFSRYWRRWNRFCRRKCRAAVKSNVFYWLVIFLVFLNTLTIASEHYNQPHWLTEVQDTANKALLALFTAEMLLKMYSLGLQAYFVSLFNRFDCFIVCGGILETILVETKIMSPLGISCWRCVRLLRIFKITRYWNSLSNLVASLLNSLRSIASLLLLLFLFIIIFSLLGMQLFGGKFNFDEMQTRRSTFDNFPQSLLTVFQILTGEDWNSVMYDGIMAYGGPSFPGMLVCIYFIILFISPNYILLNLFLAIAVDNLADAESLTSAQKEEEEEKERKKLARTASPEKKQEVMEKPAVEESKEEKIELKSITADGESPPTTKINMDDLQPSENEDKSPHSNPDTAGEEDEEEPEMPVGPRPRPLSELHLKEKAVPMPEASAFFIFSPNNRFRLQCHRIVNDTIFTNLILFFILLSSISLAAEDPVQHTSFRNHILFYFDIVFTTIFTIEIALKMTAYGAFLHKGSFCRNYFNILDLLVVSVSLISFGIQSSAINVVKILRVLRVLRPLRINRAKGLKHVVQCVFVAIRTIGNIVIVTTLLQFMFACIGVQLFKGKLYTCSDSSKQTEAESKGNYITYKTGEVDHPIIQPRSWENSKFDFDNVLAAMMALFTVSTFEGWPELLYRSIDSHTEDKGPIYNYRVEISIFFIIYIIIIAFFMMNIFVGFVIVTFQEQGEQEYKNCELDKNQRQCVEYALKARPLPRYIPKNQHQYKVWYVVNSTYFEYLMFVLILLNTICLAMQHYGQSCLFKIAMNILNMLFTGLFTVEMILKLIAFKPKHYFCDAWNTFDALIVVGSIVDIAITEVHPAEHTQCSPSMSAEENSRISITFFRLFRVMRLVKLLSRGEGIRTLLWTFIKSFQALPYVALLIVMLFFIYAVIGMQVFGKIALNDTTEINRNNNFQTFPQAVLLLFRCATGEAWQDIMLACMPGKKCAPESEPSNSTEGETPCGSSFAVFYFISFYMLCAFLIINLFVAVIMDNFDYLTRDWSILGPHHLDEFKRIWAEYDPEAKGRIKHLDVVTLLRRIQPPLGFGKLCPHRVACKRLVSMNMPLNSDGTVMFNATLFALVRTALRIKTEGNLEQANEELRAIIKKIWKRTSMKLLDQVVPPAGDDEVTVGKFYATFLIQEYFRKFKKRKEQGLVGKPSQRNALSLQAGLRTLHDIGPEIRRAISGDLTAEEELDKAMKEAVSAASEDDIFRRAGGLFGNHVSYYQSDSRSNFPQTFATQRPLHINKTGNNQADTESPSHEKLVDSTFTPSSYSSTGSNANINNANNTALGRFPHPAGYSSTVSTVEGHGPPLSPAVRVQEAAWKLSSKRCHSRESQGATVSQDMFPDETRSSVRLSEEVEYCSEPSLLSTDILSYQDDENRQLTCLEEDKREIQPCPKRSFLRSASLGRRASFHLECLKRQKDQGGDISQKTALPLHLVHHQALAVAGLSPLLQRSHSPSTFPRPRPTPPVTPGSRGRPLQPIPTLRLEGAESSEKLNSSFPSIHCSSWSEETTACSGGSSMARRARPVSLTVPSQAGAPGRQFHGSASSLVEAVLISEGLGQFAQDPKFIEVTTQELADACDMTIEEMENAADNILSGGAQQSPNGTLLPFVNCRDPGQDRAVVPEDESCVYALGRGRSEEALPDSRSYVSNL
Compound,activity in vivo (anti-wrinkle effect) [1],activity in the nerve/muscle junction test ([2]; 10^-4 M),"IC50 ([3]; ligand [^3H](-) D 888 0.5 nM, non-specific D 600 (10 µM), 60 min. /22°C, measured in duplicate)",inhibition at 100 µM [2],calcium channel inhibition compared with alvérine ([3]; conclusion from the IC50 values of Tableau 2)
CN1C(=O)CN=C(c2ccccc2)c2cc(Cl)ccc21 [diazépam],actif,actif,,,
CCN(CCCc1ccccc1)CCCc1ccccc1 [Alvérine],,,693 nM,100%,
"CCCCCC(O)(CCCCC)CCN(CC)CCCc1ccccc1 [Composé 1, 6-[2-{ethyl-(3-phenyl-propyl)amino}-ethyl]-undecan-6-ol]",,,,100%,meilleur inhibiteur de canaux calciques que l'alvérine

# — patent publication EP1420008B1, “Composition, in particular cosmetic, comprising a secondary or tertiary amine” (L'ORÉAL, priority 2002, dated 2004)
